Counter-ions that a name gives are not always drawn.
Legend:
[1] = biological target: T1, Prostate-specific membrane antigen (PSMA) (Homo sapiens, UniProt Q04609); assay: radioenzymatic assay with 3H-NAAG, purified recombinant PSMA; type: biochemical
T1 construct: gene FOLH1; extracellular part of human PSMA; amino acids 44–750

[2] = biological target: T1, Prostate-specific membrane antigen (PSMA); assay: X-ray crystal structure ([…] Å); IC50 from radioenzymatic 3H-NAAG assay with purified enzyme; type: biochemical

T1 sequence (Q04609 44-750): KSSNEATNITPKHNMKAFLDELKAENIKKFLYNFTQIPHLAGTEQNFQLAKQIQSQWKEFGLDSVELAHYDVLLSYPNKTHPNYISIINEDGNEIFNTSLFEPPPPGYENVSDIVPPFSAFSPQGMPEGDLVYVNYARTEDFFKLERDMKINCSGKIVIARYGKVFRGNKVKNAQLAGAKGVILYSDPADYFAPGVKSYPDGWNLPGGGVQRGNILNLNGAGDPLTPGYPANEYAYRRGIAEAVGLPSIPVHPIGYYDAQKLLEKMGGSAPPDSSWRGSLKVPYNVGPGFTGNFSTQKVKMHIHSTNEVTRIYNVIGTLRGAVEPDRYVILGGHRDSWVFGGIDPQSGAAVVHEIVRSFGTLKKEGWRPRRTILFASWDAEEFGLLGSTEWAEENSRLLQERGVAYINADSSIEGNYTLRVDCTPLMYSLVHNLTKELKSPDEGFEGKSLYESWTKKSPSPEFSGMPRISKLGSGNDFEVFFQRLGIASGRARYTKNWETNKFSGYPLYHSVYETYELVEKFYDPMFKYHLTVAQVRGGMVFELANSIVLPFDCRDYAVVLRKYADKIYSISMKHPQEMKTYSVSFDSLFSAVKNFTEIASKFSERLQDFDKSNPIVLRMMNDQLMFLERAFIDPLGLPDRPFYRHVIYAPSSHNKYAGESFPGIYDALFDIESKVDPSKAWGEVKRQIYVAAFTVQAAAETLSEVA

Row | IC50 [1] | IC50 [2] | SMILES
1 | 103 µM | – | O=C(O)CC[C@H](NS(=O)(=O)N[C@@H](CC(=O)O)C(=O)O)C(=O)O [compound 3, (S)-2-((N-((S)-1,2-Dicarboxyethyl)sulfamoyl)amino)pentanedioic Acid Tetrasodium Salt]
2 | 165 µM | – | O=C(O)CC[C@H](NS(=O)(=O)N[C@@H](CCC(=O)O)C(=O)O)C(=O)O [compound 4, (2S,2′S)-2,2′-(Sulfonylbis(azanediyl))dipentanedioic Acid]
3 | – | 1.2 µM | NS(=O)(=O)N[C@@H](CCC(=O)O)C(=O)O [compound 9, monosubstituted glutamyl sulfamide 9]

— paper PMC10865363, “Structural, Biochemical, and Computational Characterization of Sulfamides as Bimetallic Peptidase Inhibitors” (Journal of Chemical Information and Modeling, 2024)
